Several values for one entry are separate records, joined by “and”; a condition that tells them apart may be missing. Identical values can stand only once. Inconclusive results and toxic doses are left out. No stated cut-off is given here; in the data, active means T/C of 150% or more; inactive means T/C below 125%.
System: L1210 leukemia ip in BDF1 mice, survival T/C
Assay: NCI In Vivo Anticancer Drug Screen. Data for tumor model L1210 Leukemia (intraperitoneal) in B6D2F1 (BDF1) mice
Settings: endpoint: mean survival time, higher = longer survival
Procedure, shortened: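 Tumor cells were implanted, animals were treated, and survival was followed. The result divides the treated measurement by the vehicle-control measurement.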

[1] = dose: 100.0 mg/kg/injection, schedule: Q01DX009 (ip), vehicle: Klucel (hydroxypropylcellulose) (HPC)
[2] = dose: 100.0 mg/kg/injection, schedule: Q04DX003 (ip), vehicle: saline
[3] = dose: 200.0 mg/kg/injection, schedule: Q01DX009 (ip), vehicle: Klucel (hydroxypropylcellulose) (HPC)
[4] = dose: 200.0 mg/kg/injection, schedule: Q04DX003 (ip), vehicle: saline
[5] = dose: 400.0 mg/kg/injection, schedule: Q04DX003 (ip), vehicle: saline
[6] = dose: 100.0 mg/kg/injection, schedule: Q04DX003 (ip), vehicle: saline with Tween-80
[7] = dose: 200.0 mg/kg/injection, schedule: Q04DX003 (ip), vehicle: saline with Tween-80
[8] = dose: 100.0 mg/kg/injection, schedule: Q01DX009 (ip), vehicle: saline with Tween-80
[9] = dose: 100.0 mg/kg/injection, schedule: Q04DX003 (ip), vehicle: Klucel (hydroxypropylcellulose) (HPC)
[10] = dose: 200.0 mg/kg/injection, schedule: Q04DX003 (ip), vehicle: Klucel (hydroxypropylcellulose) (HPC)
[11] = dose: 400.0 mg/kg/injection, schedule: Q04DX003 (ip), vehicle: Klucel (hydroxypropylcellulose) (HPC)
[12] = dose: 100.0 mg/kg/injection, schedule: Q01DX001 (ip), vehicle: saline
[13] = dose: 200.0 mg/kg/injection, schedule: Q01DX001 (ip), vehicle: saline
[14] = dose: 400.0 mg/kg/injection, schedule: Q01DX001 (ip), vehicle: saline
[15] = dose: 200.0 mg/kg/injection, schedule: Q01DX009 (ip), vehicle: saline with Tween-80

Measured: T/C

CCc1cccc(CC)c1N=Cc1ccccc1O
inactive: dose: 100.0 mg/kg/injection, schedule: Q01DX009 (ip), vehicle: carboxymethylcellulose (CMC) 98 % of control and 102 % of control | dose: 100.0 mg/kg/injection, schedule: Q04DX002 (ip), vehicle: carboxymethylcellulose (CMC) 93 % of control and 101 % of control | dose: 100.0 mg/kg/injection, schedule: Q04DX003 (ip), vehicle: carboxymethylcellulose (CMC) 98 % of control | dose: 200.0 mg/kg/injection, schedule: Q01DX009 (ip), vehicle: carboxymethylcellulose (CMC) 93 % of control and 98 % of control | dose: 200.0 mg/kg/injection, schedule: Q04DX002 (ip), vehicle: carboxymethylcellulose (CMC) 96 % of control and 102 % of control | dose: 200.0 mg/kg/injection, schedule: Q04DX003 (ip), vehicle: carboxymethylcellulose (CMC) 102 % of control | dose: 400.0 mg/kg/injection, schedule: Q01DX009 (ip), vehicle: carboxymethylcellulose (CMC) 95 % of control | dose: 400.0 mg/kg/injection, schedule: Q04DX002 (ip), vehicle: carboxymethylcellulose (CMC) 93 % of control and 96 % of control | dose: 400.0 mg/kg/injection, schedule: Q04DX003 (ip), vehicle: carboxymethylcellulose (CMC) 104 % of control

C=CCN(CC=C)c1ccc(N(CC)CC)cc1
inactive: [1] 86 % of control | [2] 97 % of control | [3] 86 % of control | [4] 105 % of control | [5] 105 % of control

O=C(O)c1cccc(CCc2ccccc2)c1
inactive: dose: 100.0 mg/kg/injection, schedule: Q01DX001 (ip), vehicle: Klucel (hydroxypropylcellulose) (HPC) 102 % of control | dose: 200.0 mg/kg/injection, schedule: Q01DX001 (ip), vehicle: Klucel (hydroxypropylcellulose) (HPC) 100 % of control

COc1ccc2c(c1OC)C(=O)OC2c1ccc(O)c(Br)c1 (stereo unspecified)
inactive: dose: 100.0 mg/kg/injection, schedule: Q01DX009 (ip), vehicle: alcohol 95 % of control | [2] 109 % of control | dose: 200.0 mg/kg/injection, schedule: Q01DX009 (ip), vehicle: alcohol 97 % of control | [4] 106 % of control | dose: 400.0 mg/kg/injection, schedule: Q01DX009 (ip), vehicle: alcohol 95 % of control | [5] 101 % of control

COc1cccc(C[Si](C)C)c1
inactive: [6] 104 % of control | [7] 107 % of control

CC(=O)OC1C(CO)OC2C1Oc1nc(=N)c(F)cn12 (stereo unspecified)
inactive: dose: 100.0 mg/kg/injection, schedule: Q04DX002 (ip), vehicle: saline 92 % of control

CCC[n+]1c(C)oc2ccc(-c3ccccc3)cc21
inactive: dose: 50.0 mg/kg/injection, schedule: Q01DX009 (ip), vehicle: saline with Tween-80 97 % of control | dose: 100.0 mg/kg/injection, schedule: Q01DX001 (ip), vehicle: saline with Tween-80 94 % of control | [8] 101 % of control | dose: 200.0 mg/kg/injection, schedule: Q01DX001 (ip), vehicle: saline with Tween-80 99 % of control | dose: 400.0 mg/kg/injection, schedule: Q01DX001 (ip), vehicle: saline with Tween-80 90 % of control

c1ccc(CCNc2ccc(NCCc3ccccc3)cc2)cc1
inactive: dose: 75.0 mg/kg/injection, schedule: Q01DX001 (ip), vehicle: Klucel (hydroxypropylcellulose) (HPC) 92 % of control | dose: 75.0 mg/kg/injection, schedule: Q01DX009 (ip), vehicle: Klucel (hydroxypropylcellulose) (HPC) 97 % of control | dose: 150.0 mg/kg/injection, schedule: Q01DX001 (ip), vehicle: Klucel (hydroxypropylcellulose) (HPC) 106 % of control | dose: 150.0 mg/kg/injection, schedule: Q01DX009 (ip), vehicle: Klucel (hydroxypropylcellulose) (HPC) 100 % of control | dose: 300.0 mg/kg/injection, schedule: Q01DX001 (ip), vehicle: Klucel (hydroxypropylcellulose) (HPC) 97 % of control | dose: 300.0 mg/kg/injection, schedule: Q01DX009 (ip), vehicle: Klucel (hydroxypropylcellulose) (HPC) 106 % of control

CCOC(=O)NC(C(N)=O)C(N)=O
inactive: [9] 103 % of control | [10] 108 % of control | [11] 106 % of control

CCOC(Nc1cc(Cl)ccc1Cl)C(=O)c1ccccc1 (stereo unspecified)
inactive: [12] 97 % of control | [13] 100 % of control | [14] 96 % of control

CCOc1ccccc1NC(=O)Nc1ccccc1
inactive: [1] 92 % of control | [9] 95 % of control | [3] 96 % of control | [10] 109 % of control | dose: 400.0 mg/kg/injection, schedule: Q01DX009 (ip), vehicle: Klucel (hydroxypropylcellulose) (HPC) 91 % of control | [11] 98 % of control

CCC(=O)Nc1cccc(C)c1C
inactive: [1] 93 % of control | [9] 102 % of control | [3] 106 % of control | [10] 102 % of control | [11] 95 % of control

Cc1cc(Br)cc(C(=O)Cl)c1O
inactive: dose: 100.0 mg/kg/injection, schedule: Q04DX002 (ip), vehicle: saline with Tween-80 92 % of control | dose: 200.0 mg/kg/injection, schedule: Q04DX002 (ip), vehicle: saline with Tween-80 96 % of control | dose: 400.0 mg/kg/injection, schedule: Q04DX002 (ip), vehicle: saline with Tween-80 100 % of control

COC(=O)C1=C(c2ccncc2)c2cccc3cccc1c23
inactive: dose: 100.0 mg/kg/injection, schedule: Q04DX003 (ip), vehicle: alcohol 94 % of control | dose: 200.0 mg/kg/injection, schedule: Q04DX003 (ip), vehicle: alcohol 102 % of control

CNC(=O)Oc1ccc([N+](C)(C)C)cc1
inactive: dose: 9.5 mg/kg/injection, schedule: Q01DX001 (ip), vehicle: saline 109 % of control | dose: 19.0 mg/kg/injection, schedule: Q01DX001 (ip), vehicle: saline 100 % of control

CCCCCOC(=O)Nc1cccc(OC(=O)NC)c1
inactive: [8] 105 % of control | [15] 96 % of control | dose: 400.0 mg/kg/injection, schedule: Q01DX009 (ip), vehicle: saline with Tween-80 97 % of control

C=CC1CC=CCC1 (stereo unspecified) (tested in a mixture with another compound)
inactive: dose: 50.0 mg/kg/injection, schedule: Q01DX001 (ip), vehicle: carboxymethylcellulose (CMC) 98 % of control | dose: 100.0 mg/kg/injection, schedule: Q01DX001 (ip), vehicle: carboxymethylcellulose (CMC) 98 % of control | dose: 200.0 mg/kg/injection, schedule: Q01DX001 (ip), vehicle: carboxymethylcellulose (CMC) 98 % of control | dose: 400.0 mg/kg/injection, schedule: Q01DX001 (ip), vehicle: carboxymethylcellulose (CMC) 108 % of control

C=CCNc1nc(C)ncc1C(=O)OCC
inactive: dose: 75.0 mg/kg/injection, schedule: Q04DX003 (ip), vehicle: saline with Tween-80 94 % of control | dose: 150.0 mg/kg/injection, schedule: Q04DX003 (ip), vehicle: saline with Tween-80 92 % of control | dose: 300.0 mg/kg/injection, schedule: Q04DX003 (ip), vehicle: saline with Tween-80 92 % of control

O=C(O)c1cc(Cl)ccc1Br
inactive: dose: 50.0 mg/kg/injection, schedule: Q01DX009 (ip), vehicle: Klucel (hydroxypropylcellulose) (HPC) 104 % of control | [1] 100 % of control | [6] 100 % of control | [3] 105 % of control | [7] 104 % of control | dose: 400.0 mg/kg/injection, schedule: Q04DX003 (ip), vehicle: saline with Tween-80 94 % of control

c1ccc(-c2ccc3ncccc3c2)cc1
inactive: [12] 97 % of control | [13] 100 % of control | [14] 105 % of control

O=C(Nc1cccc(F)c1)Nc1ccc(C(=O)O)c(O)c1
inactive: [8] 91 % of control | [15] 95 % of control

— PubChem BioAssay AID248 (DTP/NCI, 2004)
